Assay results published in US9919029B2, “Methods and pharmaceutical compositions for the treatment of bacterial infections” (INSERM (INSTITUT NATIONAL DE LA SANTE ET DE LA RECHERCHE …, priority 2013, dated 2018).

System: Streptococcus pneumoniae
Assay: Streptococcus pneumoniae respiratory infection in mice
Assay type: in vivo, BALB/c mice
Details: severe/advanced infection; nasal flagellin plus antibiotic (oral amoxicillin or intraperitoneal bactrim)
Procedure: (§1) Animals were infected with a lethal dose of Streptococcus pneumoniae (1-5×10^6 CFU of serotypel, clinical isolate E1586) and treated at 40 h and 48 h as depicted in the upper panel. Seventeen hours later (T=65 h), bacterial counts were defined by plating tissue homogenates. The Left side: bacterial counts per lung. Right side: bacterial counts per spleen.
as §1, with “30” for “40 h and 48”, “Sixteen” for “Seventeen”, “(T=46” for “(T=65”
Animals were infected with a lethal dose of Streptococcus pneumoniae (1-5×10^6 CFU of serotypel, clinical isolate E1586) and treated from 12 h to 84 h as depicted in the upper panel. Survival of animals was then analyzed during 5 days.
FIG. 6. […] (A) S. pneumoniae-infected (2×10^6 CFU) BALB/c mice were treated intraperitoneally with 4.8 mg bactrim, i.e. co-trimoxazole (TMP-SMX) and intranasally with 2.5 μg flagellin FliCΔ174-400 and analyzed as indicated. (B) Survival was monitored every 12 h for 9 days. (C, D) Bacterial counts in lung (C) and spleen (D) was determined by measuring CFU per tissue. […] (E) The body weight of infected animals was measured and expressed relative to the initial weight. […]

For flagellin, the “reduction of number of bacteria compared to the antibiotic therapy alone” value was 10-to-50 fold.
